In this test the test system is erythrocytes infected with 3D7 trophozoites. It counts as cell-based, Plasmodium falciparum. Particulars: sheet Ratio; for Ratio of metabolite abundance, Exp1_1hr: Exp1, 1hr; for Ratio of metabolite abundance, Exp1_3hr: Exp1, 3hr; for Ratio of metabolite abundance, Exp1_6hr: Exp1, 6hr; for Ratio of metabolite abundance, Exp2_1hr: Exp2, 1hr; for Ratio of metabolite abundance, Exp2_3hr: Exp2, 3hr; for Ratio of metabolite abundance, Exp2_6hr: Exp2, 6hr; for Ratio of metabolite abundance, Exp3_1hr: Exp3, 1hr; for Ratio of metabolite abundance, Exp3_3hr: Exp3, 3hr; for Ratio of metabolite abundance, Exp3_6hr: Exp3, 6hr.

Each structure is given as a SMILES string. Several values for one entry are separate records, joined by “and”; a condition that tells them apart may be missing. Equal values may be shown once. Peptide text beside a SMILES is read from it.

As to `O=C(O)CCC(O)C(=O)O` (stereo not drawn) [2-Hydroxyglutarate], the “Ratio of metabolite abundance, Exp1_1hr” value stood at 0.7468; the “Ratio of metabolite abundance, Exp1_3hr” value was determined as 0.6009; the “Ratio of metabolite abundance, Exp1_6hr” value stood at 0.699; the “Ratio of metabolite abundance, Exp2_1hr” value came to 0.8783. The “Ratio of metabolite abundance, Exp2_3hr” value was determined as 0.8007; the “Ratio of metabolite abundance, Exp2_6hr” value was 0.7015; the “Ratio of metabolite abundance, Exp3_1hr” value came to 0.9193; the “Ratio of metabolite abundance, Exp3_3hr” value is listed as 0.5841. In addition, the “Ratio of metabolite abundance, Exp3_6hr” value was 0.9208.

As for `O=C(O)CCC(=O)C(=O)O` [2-Ketoglutarate], the “Ratio of metabolite abundance, Exp1_1hr” value came out at 0.5638; the “Ratio of metabolite abundance, Exp1_3hr” value worked out at 0.5076; the “Ratio of metabolite abundance, Exp1_6hr” value is listed as 0.5229; the “Ratio of metabolite abundance, Exp2_1hr” value was found to be 1.061. For the same molecule, the “Ratio of metabolite abundance, Exp2_3hr” value came to 0.5178; the “Ratio of metabolite abundance, Exp2_6hr” value amounted to 0.7675; the “Ratio of metabolite abundance, Exp3_1hr” value is 0.6752; the “Ratio of metabolite abundance, Exp3_3hr” value came out at 0.6868. Also, the “Ratio of metabolite abundance, Exp3_6hr” value is recorded as 0.9353.

As for `O=C(O)[C@H](O)COP(=O)(O)O` [3-Phosho-D-glycerate], the “Ratio of metabolite abundance, Exp1_1hr” value came to 0.9975; the “Ratio of metabolite abundance, Exp1_3hr” value was 1.1161; the “Ratio of metabolite abundance, Exp1_6hr” value came out at 1.013; the “Ratio of metabolite abundance, Exp2_1hr” value is 1.017. The “Ratio of metabolite abundance, Exp2_3hr” value turned out to be 0.9815; the “Ratio of metabolite abundance, Exp2_6hr” value worked out at 1.001; the “Ratio of metabolite abundance, Exp3_1hr” value came to 0.9949; the “Ratio of metabolite abundance, Exp3_3hr” value is reported as 1.065. Further, the “Ratio of metabolite abundance, Exp3_6hr” value was 1.039.

`N[C@@H](COP(=O)(O)O)C(=O)O` [3-Phospho-serine]: the “Ratio of metabolite abundance, Exp1_1hr” value stood at 0.7768; the “Ratio of metabolite abundance, Exp1_3hr” value was 0.7478; the “Ratio of metabolite abundance, Exp1_6hr” value stood at 0.6073; the “Ratio of metabolite abundance, Exp2_1hr” value worked out at 1.092. The “Ratio of metabolite abundance, Exp2_3hr” value came out at 0.7496; the “Ratio of metabolite abundance, Exp2_6hr” value is given as 0.7836; the “Ratio of metabolite abundance, Exp3_1hr” value amounted to 0.6617; the “Ratio of metabolite abundance, Exp3_3hr” value is recorded as 0.7708. Besides, the “Ratio of metabolite abundance, Exp3_6hr” value was 0.5594.

Regarding `NCCCC(=O)O` [4-Aminobutanoate], the “Ratio of metabolite abundance, Exp1_1hr” value was found to be 3.908; the “Ratio of metabolite abundance, Exp1_3hr” value is recorded as 0.7769; the “Ratio of metabolite abundance, Exp1_6hr” value is 1.748; the “Ratio of metabolite abundance, Exp2_1hr” value was 3.257. The “Ratio of metabolite abundance, Exp2_3hr” value was 2.342; the “Ratio of metabolite abundance, Exp2_6hr” value is reported as 1.761; the “Ratio of metabolite abundance, Exp3_1hr” value was 0.9389; the “Ratio of metabolite abundance, Exp3_3hr” value is given as 3.211. Moreover, the “Ratio of metabolite abundance, Exp3_6hr” value is 3.145.

In the case of `O=P(O)(O)OC[C@H]1OC(OP(=O)(O)OP(=O)(O)O)[C@H](O)[C@@H]1O` (stereo partly drawn) [5-Phosphoribosyl-1-pyrophosphate], the “Ratio of metabolite abundance, Exp1_1hr” value was 1.134; the “Ratio of metabolite abundance, Exp1_3hr” value came to 1.199; the “Ratio of metabolite abundance, Exp1_6hr” value is 1.224; the “Ratio of metabolite abundance, Exp2_1hr” value is 2.035. Moreover, the “Ratio of metabolite abundance, Exp2_3hr” value is on record as 1.2624; the “Ratio of metabolite abundance, Exp2_6hr” value is 1.3078; the “Ratio of metabolite abundance, Exp3_1hr” value is given as 0.8985; the “Ratio of metabolite abundance, Exp3_3hr” value turned out to be 1.899. In addition, the “Ratio of metabolite abundance, Exp3_6hr” value is given as 1.985.

Consider `O=C(O)[C@H](O)[C@@H](O)[C@H](O)[C@H](O)COP(=O)(O)O` [6-Phospho-D-gluconate], for which the “Ratio of metabolite abundance, Exp1_1hr” value was 1.0502 and 0.8295; the “Ratio of metabolite abundance, Exp1_3hr” value was 0.8826 and 0.6724; the “Ratio of metabolite abundance, Exp1_6hr” value was 0.7609 and 0.6355; the “Ratio of metabolite abundance, Exp2_1hr” value is 0.8989 and 0.6621. In addition, the “Ratio of metabolite abundance, Exp2_3hr” value is 0.8049 and 0.5841; the “Ratio of metabolite abundance, Exp2_6hr” value was 0.8315 and 0.5366; the “Ratio of metabolite abundance, Exp3_1hr” value is 0.955 and 0.8159; the “Ratio of metabolite abundance, Exp3_3hr” value was 0.8757 and 0.6904. The “Ratio of metabolite abundance, Exp3_6hr” value is 0.7181 and 0.6347.

`Nc1ncnc2c1ncn2[C@@H]1O[C@H](COP(=O)(O)OP(=O)(O)O)[C@@H](O)[C@H]1O` [ADP]: the “Ratio of metabolite abundance, Exp1_1hr” value turned out to be 0.7745; the “Ratio of metabolite abundance, Exp1_3hr” value amounted to 0.4477; the “Ratio of metabolite abundance, Exp1_6hr” value is 0.5852; the “Ratio of metabolite abundance, Exp2_1hr” value turned out to be 1.167. Besides, the “Ratio of metabolite abundance, Exp2_3hr” value is 0.7455; the “Ratio of metabolite abundance, Exp2_6hr” value was found to be 0.8713; the “Ratio of metabolite abundance, Exp3_1hr” value is reported as 0.9108; the “Ratio of metabolite abundance, Exp3_3hr” value is reported as 0.6751. Further, the “Ratio of metabolite abundance, Exp3_6hr” value is on record as 1.045.

For `Nc1ncnc2c1ncn2[C@@H]1O[C@H](COP(=O)(O)O)[C@@H](O)[C@H]1O` [AMP], the “Ratio of metabolite abundance, Exp1_1hr” value turned out to be 0.6651; the “Ratio of metabolite abundance, Exp1_3hr” value was 0.4095; the “Ratio of metabolite abundance, Exp1_6hr” value is on record as 0.7534; the “Ratio of metabolite abundance, Exp2_1hr” value is given as 1.745. The “Ratio of metabolite abundance, Exp2_3hr” value is 0.5002; the “Ratio of metabolite abundance, Exp2_6hr” value is recorded as 0.6205; the “Ratio of metabolite abundance, Exp3_1hr” value worked out at 1.254; the “Ratio of metabolite abundance, Exp3_3hr” value is listed as 1.491. Moreover, the “Ratio of metabolite abundance, Exp3_6hr” value is reported as 1.967.

As to `CC(C)C[C@H](NC(=O)[C@@H](NC(=O)[C@H](C)N)[C@@H](C)O)C(=O)N[C@@H](CO)C(=O)O` [ATLS] (H-ATLS-OH), the “Ratio of metabolite abundance, Exp1_1hr” value came to 1.05; the “Ratio of metabolite abundance, Exp1_3hr” value is listed as 0.6654; the “Ratio of metabolite abundance, Exp1_6hr” value stood at 0.8386; the “Ratio of metabolite abundance, Exp2_1hr” value was found to be 1.031. Also, the “Ratio of metabolite abundance, Exp2_3hr” value worked out at 0.8993; the “Ratio of metabolite abundance, Exp2_6hr” value was 0.9335; the “Ratio of metabolite abundance, Exp3_1hr” value is given as 1.05; the “Ratio of metabolite abundance, Exp3_3hr” value is 1.026. The “Ratio of metabolite abundance, Exp3_6hr” value is 0.9156.

Consider `Nc1ncnc2c1ncn2[C@@H]1O[C@H](COP(=O)(O)OP(=O)(O)OP(=O)(O)O)[C@@H](O)[C@H]1O` [ATP], for which the “Ratio of metabolite abundance, Exp1_1hr” value is listed as 0.9749; the “Ratio of metabolite abundance, Exp1_3hr” value is 0.855; the “Ratio of metabolite abundance, Exp1_6hr” value came out at 0.8179; the “Ratio of metabolite abundance, Exp2_1hr” value stood at 0.9538. Moreover, the “Ratio of metabolite abundance, Exp2_3hr” value was determined as 0.8859; the “Ratio of metabolite abundance, Exp2_6hr” value is on record as 0.784; the “Ratio of metabolite abundance, Exp3_1hr” value is given as 0.9549; the “Ratio of metabolite abundance, Exp3_3hr” value was 0.8395. Also, the “Ratio of metabolite abundance, Exp3_6hr” value is listed as 0.7365.

For the molecule `CC(=O)SCCNC(=O)CCNC(=O)[C@H](O)C(C)(C)COP(=O)(O)OP(=O)(O)OC[C@H]1O[C@@H](n2cnc3c(N)ncnc32)[C@H](O)[C@@H]1OP(=O)(O)O` [Acetyl-CoA], the “Ratio of metabolite abundance, Exp1_1hr” value is 0.7257; the “Ratio of metabolite abundance, Exp1_3hr” value turned out to be 0.4303; the “Ratio of metabolite abundance, Exp1_6hr” value is listed as 0.3828; the “Ratio of metabolite abundance, Exp2_1hr” value was 0.6969. The “Ratio of metabolite abundance, Exp2_3hr” value was found to be 0.7538; the “Ratio of metabolite abundance, Exp2_6hr” value amounted to 0.6508; the “Ratio of metabolite abundance, Exp3_1hr” value is recorded as 0.7524; the “Ratio of metabolite abundance, Exp3_3hr” value is 0.685. The “Ratio of metabolite abundance, Exp3_6hr” value is on record as 0.5138.

As to `CC(=O)N[C@@H](C)C(=O)O` [Acetyl-L-alanine], the “Ratio of metabolite abundance, Exp1_1hr” value is 1.844; the “Ratio of metabolite abundance, Exp1_3hr” value was found to be 0.6703; the “Ratio of metabolite abundance, Exp1_6hr” value is given as 0.7764; the “Ratio of metabolite abundance, Exp2_1hr” value was 1.062. Moreover, the “Ratio of metabolite abundance, Exp2_3hr” value is recorded as 0.5861; the “Ratio of metabolite abundance, Exp2_6hr” value came to 0.7816; the “Ratio of metabolite abundance, Exp3_1hr” value was 0.7593; the “Ratio of metabolite abundance, Exp3_3hr” value is 1.204. Besides, the “Ratio of metabolite abundance, Exp3_6hr” value was 0.7219.

Take `NCCOP(=O)(O)OP(=O)(O)OC[C@H]1O[C@@H](n2ccc(N)nc2=O)[C@H](O)[C@@H]1O` [CDP-ethanolamine]: the “Ratio of metabolite abundance, Exp1_1hr” value is recorded as 1.165; the “Ratio of metabolite abundance, Exp1_3hr” value came to 0.8992; the “Ratio of metabolite abundance, Exp1_6hr” value stood at 0.8287; the “Ratio of metabolite abundance, Exp2_1hr” value is recorded as 1.33. Also, the “Ratio of metabolite abundance, Exp2_3hr” value is 1.135; the “Ratio of metabolite abundance, Exp2_6hr” value is on record as 1.07; the “Ratio of metabolite abundance, Exp3_1hr” value is on record as 1.146; the “Ratio of metabolite abundance, Exp3_3hr” value is given as 1.029. The “Ratio of metabolite abundance, Exp3_6hr” value is reported as 0.9178.

As for `Nc1ccn([C@@H]2O[C@H](COP(=O)(O)OP(=O)(O)O)[C@@H](O)[C@H]2O)c(=O)n1` [CDP], the “Ratio of metabolite abundance, Exp1_1hr” value is 1.235; the “Ratio of metabolite abundance, Exp1_3hr” value is reported as 0.632; the “Ratio of metabolite abundance, Exp1_6hr” value is reported as 0.653; the “Ratio of metabolite abundance, Exp2_1hr” value turned out to be 1.081. In addition, the “Ratio of metabolite abundance, Exp2_3hr” value is on record as 0.7109; the “Ratio of metabolite abundance, Exp2_6hr” value is 1.157; the “Ratio of metabolite abundance, Exp3_1hr” value amounted to 0.7322; the “Ratio of metabolite abundance, Exp3_3hr” value was 0.673. Moreover, the “Ratio of metabolite abundance, Exp3_6hr” value was determined as 0.7355.

As for `Nc1ccn([C@@H]2O[C@H](COP(=O)(O)O)[C@@H](O)[C@H]2O)c(=O)n1` [CMP], the “Ratio of metabolite abundance, Exp1_1hr” value stood at 1.383; the “Ratio of metabolite abundance, Exp1_3hr” value stood at 1.267; the “Ratio of metabolite abundance, Exp1_6hr” value is listed as 1.102; the “Ratio of metabolite abundance, Exp2_1hr” value is 0.8705. Also, the “Ratio of metabolite abundance, Exp2_3hr” value is listed as 0.5442; the “Ratio of metabolite abundance, Exp2_6hr” value came out at 1.311; the “Ratio of metabolite abundance, Exp3_1hr” value was found to be 1.179; the “Ratio of metabolite abundance, Exp3_3hr” value was determined as 1.206. Also, the “Ratio of metabolite abundance, Exp3_6hr” value turned out to be 1.249.

These data come from publication PMC5298231, “The Malaria Parasite's Lactate Transporter PfFNT Is the Target of Antiplasmodial Compounds Identified in Whole Cell Phenotypic Screens” (PLoS Pathogens, 2017).
